Patent publication US20230085307A1, “PYRIDAZINONE COMPOUND AND HERBICIDE” (NISSAN CHEMICAL CORPORATION, priority 2019, published 2023)

Columns and labels:
[1] = test system: lambsquarters; test: Test Example 5: herbicidal effect by foliage application, plastic box (Table 20, symbol O); format: in vivo, lambsquarters (Chenopodium album); details: 320 g/ha
Outline: (§1)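 Post-emergence foliar test in sterilized diluvial soil. Compound applied as water-diluted emulsion at a predetermined rate to 14-day-old plants; evaluation at three weeks.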

[2] = test system: green foxtail; test: Test Example 4: herbicidal effect by soil treatment (Table 19, symbol G); format: in vivo, green foxtail (Setaria viridis); details: 320 g/ha
Outline: (§2)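 Emulsion of test compound, water-diluted to predetermined amount, sprayed on soil after sowing (seed depth ~1.5 cm, sterilized diluvial soil). Greenhouse, 25–30° C. Effect graded at three weeks post-spray.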

[3] = test system: southern crabgrass; test: Test Example 4: herbicidal effect by soil treatment (Table 19, symbol F); format: in vivo, southern crabgrass (Digitaria ciliaris); details: 320 g/ha
Outline: as §2

[4] = test system: barnyard grass; test: Test Example 3: herbicidal effect by foliage application, Wagner pot (Table 18, symbol H); format: in vivo, barnyard grass (Echinochloa crus-galli); details: 320 g/ha
Outline: (§3)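 Plants were sown in alluvial soil held under 0.1–0.5 cm standing water and grown 14 days in a greenhouse at 25–30 °C. An emulsifiable formulation, water-diluted to the set dose, was then sprayed onto the foliage, and effects were scored three weeks later using previously defined criteria.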

[5] = test system: windgrass; test: Test Example 4: herbicidal effect by soil treatment (Table 19, symbol L); format: in vivo, windgrass (Apera spica-venti); details: 320 g/ha
Outline: as §2

[6] = test system: Chinese sprangletop; test: Test Example 3: herbicidal effect by foliage application, Wagner pot (Table 18, symbol D); format: in vivo, chinese sprangletop (Leptochloa chinensis); details: 320 g/ha
Outline: as §3

[7] = test system: persian speedwell; test: Test Example 5: herbicidal effect by foliage application, plastic box (Table 20, symbol R); format: in vivo, Persian speedwell (Veronica persica); details: 320 g/ha
Outline: as §1

[8] = test system: windgrass; test: Test Example 5: herbicidal effect by foliage application, plastic box (Table 20, symbol L); format: in vivo, windgrass (Apera spica-venti); details: 320 g/ha
Outline: as §1

[9] = test system: blackgrass; test: Test Example 5: herbicidal effect by foliage application, plastic box (Table 20, symbol J); format: in vivo, blackgrass (Alopecurus myosuroides); details: 320 g/ha
Outline: as §1

[10] = test system: rice flat sedge; test: Test Example 3: herbicidal effect by foliage application, Wagner pot (Table 18, symbol E); format: in vivo, rice flat sedge (Cyperus iria); details: 320 g/ha
Outline: as §3

[11] = test system: persian speedwell; test: Test Example 4: herbicidal effect by soil treatment (Table 19, symbol R); format: in vivo, Persian speedwell (Veronica persica); details: 320 g/ha
Outline: as §2

[12] = test system: chickweed; test: Test Example 4: herbicidal effect by soil treatment (Table 19, symbol P); format: in vivo, common chickweed (Stellaria media); details: 320 g/ha
Outline: as §2

[13] = test system: lambsquarters; test: Test Example 4: herbicidal effect by soil treatment (Table 19, symbol O); format: in vivo, lambsquarters (Chenopodium album); details: 320 g/ha
Outline: as §2

[14] = test system: wild oat; test: Test Example 4: herbicidal effect by soil treatment (Table 19, symbol I); format: in vivo, wild oat (Avena fatua); details: 320 g/ha
Outline: as §2

[15] = test system: green foxtail; test: Test Example 5: herbicidal effect by foliage application, plastic box (Table 20, symbol G); format: in vivo, green foxtail (Setaria viridis); details: 320 g/ha
Outline: as §1

[16] = test system: oval-leafed pondweed; test: Test Example 2: herbicidal activity, application during weed generation under submerged conditions (Table 17, symbol C); format: in vivo, oval-leafed pondweed (Monochoria vaginalis); details: AAH 320 g/ha; application during weed generation, submerged conditions
Outline: (§4)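 Wagner pot, alluvial soil, 4 cm flood; mixed sowing of all species; greenhouse 25° C.–30° C. Emulsifiable formulation, water-diluted to predetermined dose, applied to paddy water at 1–2 leaf stage. Effect rated at 3 wk using the earlier test's scoring criteria.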

[17] = test system: barnyard grass; test: Test Example 4: herbicidal effect by soil treatment (Table 19, symbol H); format: in vivo, barnyard grass (Echinochloa crus-galli); details: 320 g/ha
Outline: as §2

[18] = test system: Italian ryegrass; test: Test Example 4: herbicidal effect by soil treatment (Table 19, symbol K); format: in vivo, Italian ryegrass (Lolium multiflorum); details: 320 g/ha
Outline: as §2

[19] = test system: velvetleaf; test: Test Example 5: herbicidal effect by foliage application, plastic box (Table 20, symbol M); format: in vivo, velvetleaf (Abutilon theophrasti); details: 320 g/ha
Outline: as §1

[20] = test system: Italian ryegrass; test: Test Example 5: herbicidal effect by foliage application, plastic box (Table 20, symbol K); format: in vivo, Italian ryegrass (Lolium multiflorum); details: 320 g/ha
Outline: as §1

[21] = test system: southern crabgrass; test: Test Example 5: herbicidal effect by foliage application, plastic box (Table 20, symbol F); format: in vivo, southern crabgrass (Digitaria ciliaris); details: 320 g/ha
Outline: as §1

[22] = test system: wild oat; test: Test Example 5: herbicidal effect by foliage application, plastic box (Table 20, symbol I); format: in vivo, wild oat (Avena fatua); details: 320 g/ha
Outline: as §1

[23] = test system: velvetleaf; test: Test Example 4: herbicidal effect by soil treatment (Table 19, symbol M); format: in vivo, velvetleaf (Abutilon theophrasti); details: 320 g/ha
Outline: as §2

[24] = test system: late watergrass; test: Test Example 2: herbicidal activity, application during weed generation under submerged conditions (Table 17, symbol A); format: in vivo, late watergrass (Echinochloa oryzicola); details: AAH 320 g/ha; application during weed generation, submerged conditions
Outline: as §4

[25] = test system: barnyard grass; test: Test Example 5: herbicidal effect by foliage application, plastic box (Table 20, symbol H); format: in vivo, barnyard grass (Echinochloa crus-galli); details: 320 g/ha
Outline: as §1

[26] = test system: blackgrass; test: Test Example 4: herbicidal effect by soil treatment (Table 19, symbol J); format: in vivo, blackgrass (Alopecurus myosuroides); details: 320 g/ha
Outline: as §2

[27] = test system: redroot pigweed; test: Test Example 4: herbicidal effect by soil treatment (Table 19, symbol N); format: in vivo, redroot pigweed (Amaranthus retroflexus); details: 320 g/ha
Outline: as §2

[28] = test system: Japanese bulrush; test: Test Example 2: herbicidal activity, application during weed generation under submerged conditions (Table 17, symbol B); format: in vivo, Japanese bulrush (Schoenoplectus juncoides); details: AAH 320 g/ha; application during weed generation, submerged conditions
Outline: as §4

[29] = test system: redroot pigweed; test: Test Example 5: herbicidal effect by foliage application, plastic box (Table 20, symbol N); format: in vivo, redroot pigweed (Amaranthus retroflexus); details: 320 g/ha, foliage application after 14-day growth, evaluated three weeks after application
Outline: as §1

[30] = test system: chickweed; test: Test Example 5: herbicidal effect by foliage application, plastic box (Table 20, symbol P); format: in vivo, common chickweed (Stellaria media); details: 320 g/ha, foliage application after 14-day growth, evaluated three weeks after application
Outline: as §1

[31] = foliage application, 3 weeks after application
[32] = foliage application after 14-day growth, evaluated three weeks after application

CCCC(=O)Oc1c(C)nn(C)c(=O)c1-c1c(-c2ccc(C(F)(F)F)cc2)sc2ccc(F)cc12 [2-021]
effect on lambsquarters (O) [1, 31]: 5 (Herbicidal rate of 90% or more (almost completely withered))
herbicidal effect rating, G: green foxtail [2]: 5 (Herbicidal rate of 90% or more (almost completely withered))
herbicidal effect rating, F: southern crabgrass [3]: 5 (Herbicidal rate of 90% or more (almost completely withered))
herbicidal effect on H (barnyard grass), rating 0-5 [4]: 5 (Herbicidal rate of 90% or more (almost completely withered))
herbicidal effect rating, L: windgrass [5]: 5 (Herbicidal rate of 90% or more (almost completely withered))
herbicidal effect on D (Chinese sprangletop), rating 0-5 [6]: 3 (Herbicidal rate of 40% or more and less than 70%)
effect on persian speedwell (R) [7, 31]: 5 (Herbicidal rate of 90% or more (almost completely withered))
effect on windgrass (L) [8, 31]: 5 (Herbicidal rate of 90% or more (almost completely withered))
effect on blackgrass (J) [9, 31]: 3 (Herbicidal rate of 40% or more and less than 70%)
herbicidal effect on E (rice flat sedge), rating 0-5 [10]: 5 (Herbicidal rate of 90% or more (almost completely withered))
herbicidal effect rating, R: persian speedwell [11]: 5 (Herbicidal rate of 90% or more (almost completely withered))
herbicidal effect rating, P: chickweed [12]: 5 (Herbicidal rate of 90% or more (almost completely withered))
herbicidal effect rating, O: lambsquarters [13]: 5 (Herbicidal rate of 90% or more (almost completely withered))
herbicidal effect rating, I: wild oat [14]: 0 (Herbicidal rate of 5% or less (almost no effect))
effect on green foxtail (G) [15, 31]: 5 (Herbicidal rate of 90% or more (almost completely withered))
herbicidal effect rating, C: oval-leafed pondweed [16]: 0 (Herbicidal rate of 5% or less (almost no effect))
herbicidal effect rating, H: barnyard grass [17]: 4 (Herbicidal rate of 70% or more and less than 90%)
herbicidal effect rating, K: Italian ryegrass [18]: 5 (Herbicidal rate of 90% or more (almost completely withered))
effect on velvetleaf (M) [19, 31]: 5 (Herbicidal rate of 90% or more (almost completely withered))
effect on Italian ryegrass (K) [20, 31]: 5 (Herbicidal rate of 90% or more (almost completely withered))
effect on southern crabgrass (F) [21, 31]: 4 (Herbicidal rate of 70% or more and less than 90%)
effect on wild oat (I) [22, 31]: 5 (Herbicidal rate of 90% or more (almost completely withered))
herbicidal effect rating, M: velvetleaf [23]: 4 (Herbicidal rate of 70% or more and less than 90%)
herbicidal effect rating, A: late watergrass [24]: 0 (Herbicidal rate of 5% or less (almost no effect))
effect on barnyard grass (H) [25, 31]: 5 (Herbicidal rate of 90% or more (almost completely withered))
herbicidal effect rating, J: blackgrass [26]: 0 (Herbicidal rate of 5% or less (almost no effect))
herbicidal effect rating, N: redroot pigweed [27]: 5 (Herbicidal rate of 90% or more (almost completely withered))
herbicidal effect rating, B: Japanese bulrush [28]: 2 (Herbicidal rate of 20% or more and less than 40%)

CCCC(=O)Oc1c(C)nn(C)c(=O)c1-c1c(-c2ccc(C(F)(F)F)cc2F)sc2c(Cl)cccc12 [4-038]
herbicidal effect on O: lambsquarters (evaluation grade 0-5) [1, 32]: 0 (Herbicidal rate of 5% or less (almost no effect))
herbicidal effect on barnyard grass (H) [4]: 4 (Herbicidal rate of 70% or more and less than 90%)
herbicidal effect on N: redroot pigweed (evaluation grade 0-5) [29]: 0 (Herbicidal rate of 5% or less (almost no effect))
herbicidal effect on Chinese sprangletop (D) [6]: 5 (Herbicidal rate of 90% or more (almost completely withered))
herbicidal effect on R: persian speedwell (evaluation grade 0-5) [7, 32]: 4 (Herbicidal rate of 70% or more and less than 90%)
herbicidal effect on P: chickweed (evaluation grade 0-5) [30]: 4 (Herbicidal rate of 70% or more and less than 90%)
herbicidal effect on L: windgrass (evaluation grade 0-5) [8, 32]: 5 (Herbicidal rate of 90% or more (almost completely withered))
herbicidal effect on J: blackgrass (evaluation grade 0-5) [9, 32]: 0 (Herbicidal rate of 5% or less (almost no effect))
herbicidal effect on rice flat sedge (E) [10]: 4 (Herbicidal rate of 70% or more and less than 90%)
herbicidal effect on G: green foxtail (evaluation grade 0-5) [15, 32]: 0 (Herbicidal rate of 5% or less (almost no effect))
herbicidal effect rating, C: oval-leafed pondweed [16]: 0 (Herbicidal rate of 5% or less (almost no effect))
herbicidal effect on M: velvetleaf (evaluation grade 0-5) [19, 32]: 0 (Herbicidal rate of 5% or less (almost no effect))
herbicidal effect on K: Italian ryegrass (evaluation grade 0-5) [20, 32]: 4 (Herbicidal rate of 70% or more and less than 90%)
herbicidal effect on F: southern crabgrass (evaluation grade 0-5) [21, 32]: 0 (Herbicidal rate of 5% or less (almost no effect))
herbicidal effect on I: wild oat (evaluation grade 0-5) [22, 32]: 2 (Herbicidal rate of 20% or more and less than 40%)
herbicidal effect rating, A: late watergrass [24]: 2 (Herbicidal rate of 20% or more and less than 40%)
herbicidal effect on H: barnyard grass (evaluation grade 0-5) [25, 32]: 0 (Herbicidal rate of 5% or less (almost no effect))
herbicidal effect rating, B: Japanese bulrush [28]: 3 (Herbicidal rate of 40% or more and less than 70%)
